These results are taken from ChEMBL document CHEMBL4043145, “Pyridine-pyrimidine amides that prevent HGF-induced epithelial scattering by two distinct mechanisms” (Bioorg Med Chem Lett, 2017).

Format in all cases: functional
Assay [1] deals with MCF7. The experiment in a line: Cell cycle arrest in human MCF7 cells assessed as accumulation at G1 phase at 100 nM (reference value: 47.47 to 52.3%).
Assay [2] concerns MCF7. The experiment in a line: Cell cycle arrest in human MCF7 cells assessed as accumulation at G1 phase at 300 nM (reference value: 47.47 to 52.3%).
Assay [3] deals with PC-3. The experiment in a line: Cell cycle arrest in human p53-null PC3 cells assessed as accumulation at S phase at 1000 nM (reference value: 29.08 to 29.33%).
The subject of assay [4] is PC-3. The assay is described as follows: Cell cycle arrest in human p53-null PC3 cells assessed as accumulation at G2/M phase at 1000 nM (reference value: 18.37 to 18.96%).
The test system of assay [5] is PC-3. The assay is described as follows: Cell cycle arrest in human p53-null PC3 cells assessed as accumulation at G1 phase at 100 nM (reference value: 50.77 to 51.16%).
Assay [6] deals with PC-3. The experiment in a line: Cell cycle arrest in human p53-null PC3 cells assessed as accumulation at G2/M phase at 300 nM (reference value: 18.37 to 18.96%).
For assay [7], the system named is MFE-280. The experiment in a line: Cell cycle arrest in human MFE280 cells assessed as accumulation at S phase at 300 nM (reference value: 14.14 to 15.66%).
Assay [8] deals with MFE-296. The assay is described as follows: Cell cycle arrest in human MFE296 cells assessed as accumulation at G1 phase at 1000 nM (reference value: 61.05 to 64.87%).
Assay [9] deals with MFE-296. The experiment in a line: Cell cycle arrest in human MFE296 cells assessed as accumulation at G2/M phase at 1000 nM (reference value: 15.71 to 17.04%).
Assay [10] deals with MFE-296. The experiment in a line: Cell cycle arrest in human MFE296 cells assessed as accumulation at G1 phase at 100 nM (reference value: 61.05 to 64.87%).
Assay [11] concerns MFE-296. The experiment in a line: Cell cycle arrest in human MFE296 cells assessed as accumulation at S phase at 100 nM (reference value: 16.96 to 19.19%).
The subject of assay [12] is MFE-296. The assay is described as follows: Cell cycle arrest in human MFE296 cells assessed as accumulation at S phase at 300 nM (reference value: 16.96 to 19.19%).
Assay [13] relates to MFE-296. The experiment in a line: Cell cycle arrest in human MFE296 cells assessed as accumulation at G2/M phase at 300 nM (reference value: 15.71 to 17.04%).
Assay [14] concerns T47D. The assay is described as follows: Cell cycle arrest in human T47D cells assessed as accumulation at G1 phase at 1000 nM (reference value: 45.5 to 57.8%).
In assay [15] the test system is T47D. The experiment in a line: Cell cycle arrest in human T47D cells assessed as accumulation at S phase at 100 nM (reference value: 19.89 to 24.55%).
The subject of assay [16] is T47D. The assay is described as follows: Cell cycle arrest in human T47D cells assessed as accumulation at G2/M phase at 300 nM (reference value: 20.58 to 28.8%).
Assay [17] has as its system MFE-280. The assay is described as follows: Induction of apoptosis in human MFE280 cells assessed as late apoptotic cells at 300 nM by 7-AAD/Annexin staining-based assay (reference value: 6 to 7.4%).
The subject of assay [18] is MFE-296. The assay is described as follows: Induction of apoptosis in human MFE296 cells assessed as nuclear debris at 300 nM by 7-AAD/Annexin staining-based assay (reference value: 0.4 to 0.8%).

Regarding `O=C(Nc1ccc(-c2cccc(Cl)c2)cn1)c1cncnc1`, the Activity worked out at 43.58% with MCF7 [1]; 16.22% with MCF7 [2]; 17.78% in the assay on PC-3 [3]; 76.06% in the assay on PC-3 [4]; 51.5% in the assay on PC-3 [5]; 60.72% in the assay on PC-3 [6]. Besides, the Activity in the assay on MFE-280 [7] is 21.09%; in the assay with MFE-296 [8], 8.62%; in the assay with MFE-296 [9] it was 72.12%; in the assay with MFE-296 [10], 53.3%; with MFE-296 [11] it was 21.05%; in the assay on MFE-296 [12], 20.61%. Further, the Activity with MFE-296 [13] was found to be 55.89%; with T47D [14] it was 31.65%; in the assay on T47D [15], 22.91%; with T47D [16], 22.28%; in the assay with MFE-280 [17], 9.5%; in the assay on MFE-296 [18], 2.6%.
